Values joined by “and” are separate entries in the source; they are usually repeats but may differ in a detail not shown here. Equal entries are not always repeated. Where two headings read alike, the source gives them in different places. Ends that are not written are not given here.

Assay [1] relates to pathogenic (IFN-γ) CD4+ T lymphocytes in PBMCs. Put plainly: IFN-γ ELISPOT analysis of PBMCs cultured with peptide. It is filed as cell-based, human. The following applies: for Prevalence of IFN-γ responses, Totals (%) / Prevalence of IFN-γ responses, Totals (responders/tested): positive response SI≧3.0; for IFN-γ response, stimulation index (SI): PBMCs, peptide 10 μM.
In assay [2] the test system is anti-inflammatory (IL-10 secreting) CD4+ T lymphocytes in PBMCs. Type of assay: cell-based, human. The following applies: for IL-10 response, stimulation index (SI): PBMCs, peptide 10 μM.
Setting [3] is: T1DM patients with HLA-DR4 alleles.
[4] abbreviates: T1DM patients with non-DR4 alleles.
Where [5] appears, read: patient #6, T1DM with HLA-DR4 alleles.
Setting [6] is: patient #24, T1DM with HLA-DR4 alleles.
Where [7] appears, read: non-diabetic control subject C13.
Where [8] appears, read: patient #5, T1DM with HLA-DR4 alleles.
The mark [9] stands for this setting: patient #27, T1DM with non-DR4 alleles.
The mark [10] stands for this setting: patient #13, T1DM with HLA-DR4 alleles.
[11] abbreviates: patient #3, T1DM with HLA-DR4 alleles.

For the sequence “LAKEWQALCAYQAEPNTCATAQGEGNIK [709–36, IA-2 peptide eluted from HLA-DR4]”, the “Prevalence of IFN-γ responses, Totals (%)” value (shortened to “Prevalence … (%)”) is “(12) %” in assay [1] (setting [3]), “(0) %” in assay [1] (setting [4]) and “(0) %” in assay [1] (non-diabetic control subjects). Besides, the figures for the “Prevalence of IFN-γ responses, Totals (responders/tested)” value in assay [1] (setting [3]), in assay [1] (setting [4]) and in assay [1] (non-diabetic control subjects) were 3/25, 0/11 and 0/14, respectively. Besides, the “IFN-γ response, stimulation index (SI)” value in assay [1] (setting [5]) worked out at 9.2; in assay [1] (patient #19, T1DM with HLA-DR4 alleles), 5.0; in assay [1] (setting [6]), 10.5. Also, the “Prevalence of IL-10 responses, Totals (responders/tested)” value is 2/17 and 1/7 in assay [2]; 3/14 in assay [2] (non-diabetic control subjects, positive response SI≧3.0). Besides, the “IL-10 response, stimulation index (SI)” value in assay [2] (non-diabetic control subject C4) amounted to 3.6; in assay [2] (non-diabetic control subject C6), 3.2; in assay [2] (setting [7]), 3.8; in assay [2] (setting [8]), 3.5; in assay [2] (setting [6]) it was 9.0; in assay [2] (setting [9]), 7.0.

As to QPLALEGSLQKRGIVEQ [C22-A5], the “Prevalence … (%)” value is “(18) %” in assay [1] (setting [3]), “(25) %” in assay [1] (setting [4]) and “(0) %” in assay [1] (non-diabetic control subjects). For the same sequence, the “Prevalence of IFN-γ responses, Totals (responders/tested)” value in assay [1] (setting [3]) was 3/17; in assay [1] (setting [4]), 2/8; in assay [1] (non-diabetic control subjects), 0/14. Further, the “IFN-γ response, stimulation index (SI)” value in assay [1] (setting [8]) amounted to 3.7; in assay [1] (setting [5]), 22.0; in assay [1] (setting [10]), 3.3; in assay [1] (patient #28, T1DM with non-DR4 alleles), 5.8; in assay [1] (patient #29, T1DM with non-DR4 alleles), 4.0. Moreover, the “Prevalence of IL-10 responses, Totals (responders/tested)” value in assay [2] is 1/12 and 1/5 and 1/13. The figures for the “IL-10 response, stimulation index (SI)” value in assay [2] (setting [7]), in assay [2] (setting [11]) and in assay [2] (setting [9]) were 4.3, 7.36 and 3.0, respectively.

Turning to “SFYLKNVQTQETRTLTQFHF [853–72, IA-2 peptide eluted from HLA-DR4]”, the “Prevalence … (%)” value is “(28) %” in assay [1] (setting [3]), “(18) %” in assay [1] (setting [4]) and “(7) %” in assay [1] (non-diabetic control subjects). Moreover, the “Prevalence of IFN-γ responses, Totals (responders/tested)” value is recorded as 7/25 in assay [1] (setting [3]), 2/11 in assay [1] (setting [4]) and 1/14 in assay [1] (non-diabetic control subjects). Also, the “IFN-γ response, stimulation index (SI)” value in assay [1] (non-diabetic control subject C9) amounted to 4.7; in assay [1] (patient #1, T1DM with HLA-DR4 alleles), 10.0; in assay [1] (setting [11]), 10; in assay [1] (setting [5]), 6.6; in assay [1] (patient #9, T1DM with HLA-DR4 alleles), 5.2; in assay [1] (setting [10]) it was 3.6. Moreover, the “IFN-γ response, stimulation index (SI)” value in assay [1] (setting [6]) is 48.3; in assay [1] (setting [9]), 3.1; in assay [1] (patient #34, T1DM with non-DR4 alleles) it was 3.7. For the same sequence, the “Prevalence of IL-10 responses, Totals (responders/tested)” value in assay [2] was 2/17 and 2/7 and 2/14. The “IL-10 response, stimulation index (SI)” value in assay [2] (non-diabetic control subject C5) is on record as 4.7; in assay [2] (non-diabetic control subject C8) it was 66.0; in assay [2] (setting [5]), 4.3; in assay [2] (setting [6]) it was 9.0; in assay [2] (setting [9]), 20.0; in assay [2] (patient #35, T1DM with non-DR4 alleles) it was 9.6.

Values taken from US7049292B2, “Therapeutically effective peptides related to preproinsulin” (King's College London, priority 2004, dated 2006).
